Test results: patent publication US20100298141A1, “SUBSTITUTED PYRIDINE N-OXIDE HERBICIDES” (E. I. DU PONT DE NEMOURS AND COMPANY, priority 2007, published 2010)

Columns and labels:
Experiment in all cases: Test A pre-/postemergence greenhouse test
[1] = tested on: giant foxtail; type: in vivo, Setaria faberi; conditions: for Plant response rating, Foxtail, Giant: 0 to 100 scale where 0 is no effect and 100 is complete control; for Foxtail, Giant plant response rating: 0 to 100 scale
From the text: (§1) Seeds of barnyardgrass (Echinochloa crus-galli), crabgrass (Digitaria sanguinalis), giant foxtail (Setaria faberi), morningglory (Ipomoea spp.), redroot pigweed (Amaranthus retroflexus), velvetleaf (Abutilon theophrasti), wheat (Triticum aestivum), and corn (Zea mays) were planted into a blend of loam soil and sand and treated preemergence with a directed soil spray using test compounds formulated in a non-phytotoxic solvent mixture which included a surfactant. At the same time these species were also treated with postemergence applications of test compounds formulated in the same manner. Plants ranged in height from two to ten cm and were in the one- to two-leaf stage for the postemergence treatment. Treated plants and untreated controls were maintained in a greenhouse for approximately ten days, after which time all treated plants were compared to untreated controls and visually evaluated for injury. […] A dash (-) response means no test results.

[2] = tested on: morningglory; type: in vivo, Ipomoea spp.; conditions: for Plant response rating, Morningglory: 0 to 100 scale where 0 is no effect and 100 is complete control; for Morningglory plant response rating: 0 to 100 scale
From the text: as §1

[3] = tested on: velvetleaf; type: in vivo, Abutilon theophrasti; conditions: for Plant response rating, Velvetleaf: 0 to 100 scale where 0 is no effect and 100 is complete control; for Velvetleaf plant response rating: 0 to 100 scale
From the text: as §1

[4] = tested on: wheat; type: in vivo, Triticum aestivum; conditions: for Plant response rating, Wheat: 0 to 100 scale where 0 is no effect and 100 is complete control; for Wheat plant response rating: 0 to 100 scale
From the text: as §1

[5] = tested on: barnyardgrass; type: in vivo, Echinochloa crus-galli; conditions: for Plant response rating, Barnyardgrass: 0 to 100 scale where 0 is no effect and 100 is complete control; for Barnyardgrass plant response rating: 0 to 100 scale
From the text: as §1

[6] = tested on: redroot pigweed; type: in vivo, Amaranthus retroflexus; conditions: for Plant response rating, Pigweed: 0 to 100 scale where 0 is no effect and 100 is complete control; for Pigweed plant response rating: 0 to 100 scale
From the text: as §1

[7] = tested on: crabgrass; type: in vivo, Digitaria sanguinalis; conditions: for Plant response rating, Crabgrass, Large: 0 to 100 scale where 0 is no effect and 100 is complete control; for Crabgrass, Large plant response rating: 0 to 100 scale
From the text: as §1

[8] = tested on: corn; type: in vivo, Zea mays; conditions: for Plant response rating, Corn: 0 to 100 scale where 0 is no effect and 100 is complete control; for Corn plant response rating: 0 to 100 scale
From the text: as §1

[9] = Postemergence, 500 g ai/ha, 0 is no effect, 100 is complete control
[10] = Preemergence, 125 g ai/ha, 0 no effect, 100 complete control
[11] = Preemergence, 500 g ai/ha, 0 no effect, 100 complete control

SMILES	Plant response rating, Foxtail, Giant ([1]; Postemergence, 125 g ai/ha)	Foxtail, Giant plant response rating [1, 9]	Foxtail, Giant plant response rating [1, 10]	Foxtail, Giant plant response rating [1, 11]	Plant response rating, Morningglory ([2]; Postemergence, 125 g ai/ha)	Morningglory plant response rating [2, 9]	Morningglory plant response rating [2, 10]	Morningglory plant response rating [2, 11]	Plant response rating, Velvetleaf ([3]; Postemergence, 125 g ai/ha)	Velvetleaf plant response rating [3, 9]	Velvetleaf plant response rating [3, 10]	Velvetleaf plant response rating [3, 11]	Plant response rating, Wheat ([4]; Postemergence, 125 g ai/ha)	Wheat plant response rating [4, 9]	Wheat plant response rating [4, 10]	Wheat plant response rating [4, 11]	Plant response rating, Barnyardgrass ([5]; Postemergence, 125 g ai/ha)	Barnyardgrass plant response rating [5, 9]	Barnyardgrass plant response rating [5, 10]	Barnyardgrass plant response rating [5, 11]	further results
CCCc1cc[n+]([O-])c(S(=O)(=O)Cc2c(C(F)(F)F)nn(C)c2OCC(F)(F)F)c1 [Compound 115]	40	80	90	100	0	0	30	80	0	20	20	60	30	50	20	50	60	70	90	90	Plant response rating, Pigweed ([6]; Postemergence, 125 g ai/ha): 20; Pigweed plant response rating [6, 9]: 80; Pigweed plant response rating [6, 10]: 100; Pigweed plant response rating [6, 11]: 100; Plant response rating, Crabgrass, Large ([7]; Postemergence, 125 g ai/ha): 20; Crabgrass, Large plant response rating [7, 9]: 70; Crabgrass, Large plant response rating [7, 10]: 80; Crabgrass, Large plant response rating [7, 11]: 100; Plant response rating, Corn ([8]; Postemergence, 125 g ai/ha): 0; Corn plant response rating [8, 9]: 20; Corn plant response rating [8, 10]: 30; Corn plant response rating [8, 11]: 50
Cn1nc(C(F)(F)F)c(CS(=O)(=O)c2cc(C3CC3)cc[n+]2[O-])c1OCC(F)(F)F [Compound 119]	30	70	90	100	10	20	30	80	10	50	20	70	30	50	0	30	40	60	50	90	Plant response rating, Pigweed ([6]; Postemergence, 125 g ai/ha): 30; Pigweed plant response rating [6, 9]: 60; Pigweed plant response rating [6, 10]: 100; Pigweed plant response rating [6, 11]: 100; Plant response rating, Crabgrass, Large ([7]; Postemergence, 125 g ai/ha): 40; Crabgrass, Large plant response rating [7, 9]: 60; Crabgrass, Large plant response rating [7, 10]: 80; Crabgrass, Large plant response rating [7, 11]: 90; Plant response rating, Corn ([8]; Postemergence, 125 g ai/ha): 0; Corn plant response rating [8, 9]: 0; Corn plant response rating [8, 10]: 0; Corn plant response rating [8, 11]: 0
Cn1nc(C(F)(F)F)c(C[S+]([O-])c2cc(C3CC3)cc[n+]2[O-])c1OCC(F)(F)F (stereo not drawn) [Compound 121]	50	80	100	100	40	60	40	90	40	70	60	80	30	50	60	100	50	70	100	100	Plant response rating, Pigweed ([6]; Postemergence, 125 g ai/ha): 60; Pigweed plant response rating [6, 9]: 70; Pigweed plant response rating [6, 10]: 100; Pigweed plant response rating [6, 11]: 100; Plant response rating, Crabgrass, Large ([7]; Postemergence, 125 g ai/ha): 30; Crabgrass, Large plant response rating [7, 9]: 80; Crabgrass, Large plant response rating [7, 10]: 100; Crabgrass, Large plant response rating [7, 11]: 100; Plant response rating, Corn ([8]; Postemergence, 125 g ai/ha): 20; Corn plant response rating [8, 9]: 60; Corn plant response rating [8, 10]: 60; Corn plant response rating [8, 11]: 90
CCCc1cc[n+]([O-])c(S(=O)(=O)Cc2c(C(F)(F)F)nn(C)c2OC(F)F)c1 [Compound 117]	70	80	90	90	40	90	80	90	50	60	10	90	40	50	30	70	40	80	20	90	Plant response rating, Pigweed ([6]; Postemergence, 125 g ai/ha): 60; Pigweed plant response rating [6, 9]: 80; Pigweed plant response rating [6, 10]: 100; Pigweed plant response rating [6, 11]: 100; Plant response rating, Crabgrass, Large ([7]; Postemergence, 125 g ai/ha): 50; Crabgrass, Large plant response rating [7, 9]: 80; Crabgrass, Large plant response rating [7, 10]: 80; Crabgrass, Large plant response rating [7, 11]: 90; Plant response rating, Corn ([8]; Postemergence, 125 g ai/ha): 0; Corn plant response rating [8, 9]: 40; Corn plant response rating [8, 10]: 20; Corn plant response rating [8, 11]: 60
Cn1nc(C(F)(F)F)c(CS(=O)(=O)c2cc(C3CC3)cc[n+]2[O-])c1OC(F)F [Compound 118]	40	80	90	100	20	60	40	100	40	60	20	90	40	60	40	60	50	70	70	100	Plant response rating, Pigweed ([6]; Postemergence, 125 g ai/ha): 50; Pigweed plant response rating [6, 9]: 80; Pigweed plant response rating [6, 10]: 100; Pigweed plant response rating [6, 11]: 100; Plant response rating, Crabgrass, Large ([7]; Postemergence, 125 g ai/ha): 40; Crabgrass, Large plant response rating [7, 9]: 80; Crabgrass, Large plant response rating [7, 10]: 90; Crabgrass, Large plant response rating [7, 11]: 100; Plant response rating, Corn ([8]; Postemergence, 125 g ai/ha): 0; Corn plant response rating [8, 9]: 0; Corn plant response rating [8, 10]: 0; Corn plant response rating [8, 11]: 20
CCCc1cc[n+]([O-])c([S+]([O-])Cc2c(C(F)(F)F)nn(C)c2OCC(F)(F)F)c1 (stereo not drawn) [Compound 114]	80	90	100	100	60	70	70	90	50	60	60	80	50	70	60	90	50	80	90	100	Plant response rating, Pigweed ([6]; Postemergence, 125 g ai/ha): 70; Pigweed plant response rating [6, 9]: 90; Pigweed plant response rating [6, 10]: 100; Pigweed plant response rating [6, 11]: 100; Plant response rating, Crabgrass, Large ([7]; Postemergence, 125 g ai/ha): 50; Crabgrass, Large plant response rating [7, 9]: 80; Crabgrass, Large plant response rating [7, 10]: 90; Crabgrass, Large plant response rating [7, 11]: 100; Plant response rating, Corn ([8]; Postemergence, 125 g ai/ha): 60; Corn plant response rating [8, 9]: 70; Corn plant response rating [8, 10]: 30; Corn plant response rating [8, 11]: 80
